Here are results for 22 molecules from patent US20230210999A1, “TARGETED PROTEASE DEGRADATION (TED) PLATFORM” (EUBULUS BIOTHERAPEUTICS INC., priority 2020, published 2023).

SMILES strings stand for the structures. Where two headings read alike, the source gives them in different places.

Assay type in all cases: cell-based, human
For assay [1], the system named is Daudi cells. In words: Cell proliferation experiment, Daudi. The conditions noted are these: Homo sapiens, Daudi, read-out: Inhibitory activity IC50 on Daudi. The protocol: (§1) Reagents: RPMI-1640 medium, McCoy's 5A medium, IMDM medium, MEM medium, L-15 medium, fetal bovine serum. Penicillin-Streptomycin double antibody, trypsin, etc., 2-mercaptoethanol, NEAA, pyruvate, etc.
(§2) The cells were cultured in conventional ways, and the cells should be passed at least 2 generations before plating. Cells at the logarithmic growth phase were collected, prepared into single cell suspensions and counted. The concentration of cells was adjusted to the desired concentration, and cells were inoculated into a 96-well cell culture plate at 100 μl per well. 100 μL of complete medium of the test compound were added to each well, set up 2 duplicate wells for each concentration, and diluted with a 5-fold gradient, and continued to culture for 72 h. All cells were subjected to IC50 test for corresponding samples. The experimental results are shown in Test Example 4.
(§3) The fluorescence intensity of each well was detected using the Alarm blue method, and IC50 was calculated.
(§4) IC50 was calculated according to the following formula:
(§5) Y=Max+(Min−Max)/[1+(X/IC50)×Slope]
(§6) wherein Min, Max and Slope represent the minimum, maximum and slope respectively.

Assay [2] concerns MDA-MB-231 cells. In words: Cell proliferation experiment, MDA-MB-231. The conditions noted are these: Homo sapiens. As to the method: as §1, §2, §3, §4, §5, §6
The test system of assay [3] is MV4;11 cells. In words: Cell proliferation experiment (Alamar blue, 72 h), MV4;11. The conditions noted are these: Homo sapiens. As to the method: as §1, §2, §3, §4, §5, §6
In general terms: The colour change of resazurin is a common sign of viable cells or microbes.

In assay [4] the test system is NCIH82 cells. In words: Cell proliferation experiment, NCI-H82. Particulars: Homo sapiens, NCI-H82, NCI-H82 cells; read-out: Inhibitory activity IC50 on NCI-H82. As to the method:
as §1, §2, §3, §4, §5, §6

The mark [5] stands for this setting: MDA-MB-231, MDA-MB-231 cells, read-out: Inhibitory activity IC50 on MDA-MB-231.
The mark [6] stands for this setting: MV4-11, MV4;11 cells, read-out: Inhibitory activity IC50 on MV4;11.

One may read the IC50 as the midpoint of a concentration-inhibition curve. Consider `CC[C@@H]1C(=O)N(C)c2cnc(Nc3ccc(C(=O)N[C@H]4CC[C@@H](NC5CCN(CCC#Cc6cccc7c6CN(C6CCC(=O)NC6=O)C7=O)CC5)CC4)cc3OC)nc2N1C1CCCC1` (stereo partly shown) [UB-180934], for which the IC50 is 10 to 100 nM in assay [1] (Daudi cells); 100 to 1000 nM in assay [2] (setting [5]); ≤ 100 nM in assay [3] (MV4-11, 72 h, MV4;11 cells, 72 h, read-out: Inhibitory activity IC50 of tested compounds on MV4;11 cells); 10 to 100 nM in assay [3] (setting [6]).
Turning to `CC[C@@H]1C(=O)N(C)c2cnc(Nc3ccc(C(=O)NCCCOCCCN(CCC#Cc4cccc5c4CN(C4CCC(=O)NC4=O)C5=O)C(=O)OC(C)C(C)SSC[C@@H](NC(=O)[C@@H](CC(=O)O)NC(=O)[C@@H](CC(=O)O)NC(=O)[C@@H](CCCNC(=N)N)NC(=O)[C@@H](CC(=O)O)NC(=O)CC[C@H](NC(=O)c4ccc(NCc5cnc6nc(N)[nH]c(=O)c6n5)cc4)C(=O)O)C(=O)O)cc3OC)nc2N1C1CCCC1` (stereo partly shown) [UB-180939], the IC50 in assay [1] was 100 to 1000 nM; in assay [2] (MDA-MB-231, read-out: Inhibitory activity IC50 on MDA-MB-231), > 1000 nM; in assay [3] (MV4-11, read-out: Inhibitory activity IC50 on MV4;11) it was 10 to 100 nM.
For `CC[C@@H]1C(=O)N(C)c2cnc(Nc3ccc(-c4cn(CCCCCCNCCC#Cc5cccc6c5CN(C5CCC(=O)NC5=O)C6=O)nn4)cc3OC)nc2N1C1CCCC1` (stereo partly shown) [UB-180949], the IC50 is 10 to 100 nM in assay [1] (Daudi cells), 10 to 100 nM in assay [2] (setting [5]) and < 10 nM in assay [3] (setting [6]).
Take `CC[C@@H]1C(=O)N(C)c2cnc(Nc3ccc(-c4cn([C@H]5CC[C@@H](NCCCCCC#Cc6cccc7c6CN(C6CCC(=O)NC6=O)C7=O)CC5)nn4)cc3OC)nc2N1C1CCCC1` (stereo partly shown) [UB-180977]: the IC50 in assay [1] (Daudi cells) was 10 to 100 nM; in assay [2] (setting [5]), < 10 nM; in assay [3] (setting [6]) it was < 10 nM.
As to `CC[C@@H]1C(=O)N(C)c2cnc(Nc3ccc(C(=O)N[C@H]4CC[C@@H](NCCCCCC#Cc5cccc6c5CN(C5CCC(=O)NC5=O)C6=O)CC4)cc3OC)nc2N1C1CCCC1` (stereo partly shown) [UB-180978], the IC50 in assay [1] (Daudi cells) was 10 to 100 nM; in assay [2] (setting [5]), < 10 nM; in assay [3] (setting [6]), < 10 nM.
In the case of `CC[C@@H]1C(=O)N(C)c2cnc(Nc3ccc(-c4cn([C@H]5CC[C@@H](N(CCOCCC#Cc6cccc7c6CN(C6CCC(=O)NC6=O)C7=O)C(=O)OC(C)C(C)SSC[C@@H](NC(=O)[C@@H](CC(=O)O)NC(=O)[C@@H](CC(=O)O)NC(=O)[C@@H](CCCNC(=N)N)NC(=O)[C@@H](CC(=O)O)NC(=O)CC[C@H](NC(=O)c6ccc(NCc7cnc8nc(N)[nH]c(=O)c8n7)cc6)C(=O)O)C(=O)O)CC5)nn4)cc3OC)nc2N1C1CCCC1` (stereo partly shown) [UB-180979], the IC50 lay in the range of 10 to 100 nM in assay [1] (Daudi cells), 100 to 1000 nM in assay [2] (setting [5]) and 10 to 100 nM in assay [3] (setting [6]).
As for `CC[C@@H]1C(=O)N(C)c2cnc(Nc3ccc(-c4cn([C@H]5CC[C@@H](NCCOCCCC#Cc6cccc7c6CN(C6CCC(=O)NC6=O)C7=O)CC5)nn4)cc3OC)nc2N1C1CCCC1` (stereo partly shown) [UB-180992], the IC50 in assay [1] (Daudi cells) was 10 to 100 nM; in assay [2] (setting [5]) it was 10 to 100 nM; in assay [3] (setting [6]) it was < 10 nM.
Turning to `CC[C@@H]1C(=O)N(C)c2cnc(Nc3ccc(-c4cn([C@H]5CC[C@@H](NCCOCCCC#Cc6ccc7c(c6)CN(C6CCC(=O)NC6=O)C7=O)CC5)nn4)cc3OC)nc2N1C1CCCC1` (stereo partly shown) [UB-180993], the IC50 in assay [1] (Daudi cells), in assay [2] (setting [5]) and in assay [3] (setting [6]) was 10 to 100 nM throughout.
For the molecule `CC[C@@H]1C(=O)N(C)c2cnc(Nc3ccc(-c4cn([C@H]5CC[C@@H](NCCCOCCC#Cc6cccc7c6CN(C6CCC(=O)NC6=O)C7=O)CC5)nn4)cc3OC)nc2N1C1CCCC1` (stereo partly shown) [UB-180998], the IC50 was 10 to 100 nM in assay [1] (Daudi cells), 10 to 100 nM in assay [2] (setting [5]) and < 10 nM in assay [3] (setting [6]).
Turning to `CC[C@@H]1C(=O)N(C)c2cnc(Nc3ccc(-c4cn([C@H]5CC[C@@H](NCCCOCCC#Cc6ccc7c(c6)CN(C6CCC(=O)NC6=O)C7=O)CC5)nn4)cc3OC)nc2N1C1CCCC1` (stereo partly shown) [UB-180999], the IC50 in assay [1] (Daudi cells) was 10 to 100 nM; in assay [2] (setting [5]) it was 10 to 100 nM; in assay [3] (setting [6]), < 10 nM.
`O=C1CCC(N2Cc3c(NC(=O)CNCCCCOCCCCNC(=O)[C@]4(Cc5cccc(Nc6nccs6)n5)CC[C@@H](Oc5cccc(Cl)c5F)CC4)cccc3C2=O)C(=O)N1` (stereo partly shown) [UB-181013]: the IC50 was > 1000 nM in assay [1] (Daudi cells), 100 to 1000 nM in assay [3] (setting [6]) and > 1000 nM in assay [4].
Regarding `O=C1CCC(N2Cc3c(C#CCCNCCOCCOCCNC(=O)[C@]4(Cc5cccc(Nc6nccs6)n5)CC[C@@H](Oc5cccc(Cl)c5F)CC4)cccc3C2=O)C(=O)N1` (stereo partly shown) [UB-181014], the IC50 in assay [1] (Daudi cells) was > 1000 nM; in assay [3] (setting [6]), 100 to 1000 nM; in assay [4], > 1000 nM.
Regarding `O=C1CCC(N2Cc3cc(C#CCCNCCOCCOCCNC(=O)[C@]4(Cc5cccc(Nc6nccs6)n5)CC[C@@H](Oc5cccc(Cl)c5F)CC4)ccc3C2=O)C(=O)N1` (stereo partly shown) [UB-181015], the concentration for half-maximal inhibition (IC50) in assay [1] (Daudi cells) is > 1000 nM; in assay [3] (setting [6]) it was 100 to 1000 nM; in assay [4], > 1000 nM.
`O=C1CCC(N2Cc3cc(NC(=O)CCOCCOCCNCCn4cc(-c5ccc(Nc6ncc7c(n6)-c6ccc(Cl)cc6C(c6c(F)cccc6F)=NC7)cc5)nn4)ccc3C2=O)C(=O)N1` (stereo not shown) [UB-181016]: the IC50 in assay [1] (Daudi cells) is > 1000 nM; in assay [3] (setting [6]), 100 to 1000 nM; in assay [4], > 1000 nM.
Regarding `O=C1CCC(N2Cc3cc(NC(=O)CNCCCOCCCCCNC(=O)[C@]4(Cc5cccc(Nc6nccs6)n5)CC[C@@H](Oc5cccc(Cl)c5F)CC4)ccc3C2=O)C(=O)N1` (stereo partly shown) [UB-181017], the figures for the IC50 in assay [1] (Daudi cells), in assay [3] (setting [6]) and in assay [4] were > 1000 nM, 100 to 1000 nM and > 1000 nM, respectively.
Take `O=C1CCC(N2Cc3cc(NC(=O)CCOCCOCCNCCNC(=O)[C@]4(Cc5cccc(Nc6nccs6)n5)CC[C@@H](Oc5cccc(Cl)c5F)CC4)ccc3C2=O)C(=O)N1` (stereo partly shown) [UB-181018]: the IC50 in assay [1] (Daudi cells), in assay [3] (setting [6]) and in assay [4] was > 1000 nM in each case.
On to `O=C1CCC(N2Cc3cc(NC(=O)CNCCCCOCCCCNC(=O)[C@]4(Cc5cccc(Nc6nccs6)n5)CC[C@@H](Oc5cccc(Cl)c5F)CC4)ccc3C2=O)C(=O)N1` (stereo partly shown) [UB-181019], for which the results for the IC50 in assay [1] (Daudi cells), in assay [3] (setting [6]) and in assay [4] were > 1000 nM, 100 to 1000 nM and > 1000 nM, respectively.
Consider `O=C1CCC(N2Cc3cc(NC(=O)CNCCCOCCOCCn4cc(-c5ccc(Nc6ncc7c(n6)-c6ccc(Cl)cc6C(c6c(F)cccc6F)=NC7)cc5)nn4)ccc3C2=O)C(=O)N1` (stereo not shown) [UB-181020], for which the IC50 in assay [1] (Daudi cells) is > 1000 nM; in assay [3] (setting [6]), 100 to 1000 nM; in assay [4], > 1000 nM.
As for `O=C1CCC(N2Cc3c(C#CCCNCCOCCOCCn4cc(-c5ccc(Nc6ncc7c(n6)-c6ccc(Cl)cc6C(c6c(F)cccc6F)=NC7)cc5)nn4)cccc3C2=O)C(=O)N1` (stereo not shown) [UB-181027], the IC50 in assay [1] (Daudi cells), in assay [3] (setting [6]) and in assay [4] was > 1000 nM throughout.
As for `O=C1CCC(N2Cc3c(C#CCCNCCOCCOCCNC(=O)c4ccc(Nc5ncc6c(n5)-c5ccc(Cl)cc5C(c5c(F)cccc5F)=NC6)cc4)cccc3C2=O)C(=O)N1` (stereo not shown) [UB-181028], the IC50 in assay [1] (Daudi cells) is > 1000 nM; in assay [3] (setting [6]) it was 100 to 1000 nM; in assay [4], > 1000 nM.
Consider `O=C1CCC(N2Cc3cc(C#CCCNCCOCCOCCNC(=O)c4ccc(Nc5ncc6c(n5)-c5ccc(Cl)cc5C(c5c(F)cccc5F)=NC6)cc4)ccc3C2=O)C(=O)N1` (stereo not shown) [UB-181029], for which the IC50 in assay [1] (Daudi cells), in assay [3] (setting [6]) and in assay [4] was > 1000 nM each time.
As for `O=C1CCC(N2Cc3c(NC(=O)CCNCCCOCCCCNC(=O)[C@]4(Cc5cccc(Nc6nccs6)n5)CC[C@@H](Oc5cccc(Cl)c5F)CC4)cccc3C2=O)C(=O)N1` (stereo partly shown) [UB-181030], the IC50 in assay [1] (Daudi cells), in assay [3] (setting [6]) and in assay [4] was > 1000 nM throughout.
